Test: xn = mol fraction of the nth substance listed
Settings: 100 kPa

CC#N + C[N+](C)(C)CCC[N+]1(C)CCCCC1.N#C[N-]C#N.N#C[N-]C#N
x2 = 0
Settings	viscosity [mPa·s]
293.15 K	0.364
308.15 K	0.32
313.15 K	0.307
318.15 K	0.296
323.15 K	0.285
328.15 K	0.275

C[N+](C)(C)CCC[N+]1(C)CCCCC1.N#C[N-]C#N.N#C[N-]C#N + CC#N
viscosity [mPa·s]
Settings	288.15 K	293.15 K	298.15 K	303.15 K	308.15 K	313.15 K	318.15 K	323.15 K	328.15 K	333.15 K
x1 = 0.0999	3.99	–	3.42	3.18	–	2.81	–	2.54	2.43	2.32
x1 = 0.2001	17.4	15.1	13.2	11.6	10.3	–	–	7.49	–	6.16
x1 = 0.3001	56.9	45.9	–	31.4	–	22.7	19.6	–	15.4	13.7
x1 = 0.3998	146	112	87.3	–	–	46.6	39.3	33.3	28.6	24.8
x1 = 0.5002	334	243	–	139	–	87	–	58.2	–	–
x1 = 0.6	679	466	322	246	185	145	114	–	–	62.3
x1 = 0.7001	1177	729	508	370	274	210	–	–	105	85.5
x1 = 0.7996	–	1390	900	623	449	329	246	193	152	122
x1 = 0.8998	3992	2477	1610	1085	760	–	400	303	233	–
x1 = 1	7553	–	–	1837	1224	856	–	460	350	270

From a compilation of properties of binary mixtures (doi:10.1039/c8ra04127j)
